Assays:
[1] = Endotoxin binding: competitive displacement of BODIPY TR-Cadaverine from LPS; set-up: species or system Escherichia coli; conditions: 5 μM peptide, 10 μM BC, 10 μg/mL LPS, low ionic-strength 10 mM Na-PO4
Procedure: FIGS. 2A-2B are graphs showing endotoxin binding. The figures depict the competitive displacement of BC from LPS/LTA by the peptides. 5 μM of each peptide was incubated with 10 μM BC and 10 μg/mL LPS from E. coli (0111:B4) or LTA from S. aureus. Fluorescence intensity was measured at excitation=580 nm and emission=620 nm. 10 μM BC without endotoxin was used as 100% displacement while 10 μM BC with 10 μg/mL LPS/LTA without any peptide as 0% displacement and the % displacement of BC by each peptide was calculated accordingly. […] had been used as a positive control. The horizontal dotted line coincides with the % displacement of BC by ATRA1 on the y-axis.
FIGS. 6A-6B are graphs showing endotoxin (LPS (FIG. 6A) and LTA (FIG. 6B)) binding. Competitive displacement of BC from LPS/LTA. In each case, 5 μM peptide was incubated with 10 μM BC and 10 μg/mL LPS from E. coli (0111:B4) or LTA from S. aureus. Fluorescence intensity was measured using excitation=580 nm and emission=620 nm. As a positive control 10 μM BC without endotoxin was used as a reference for 100% displacement while 10 μM BC with 10 μg/mL LPS/LTA without any peptide as a negative control and a reference for 0% displacement. These controls were used to calculate % BC displacement for each peptide.
Endotoxin Binding. The binding of endotoxin (LPS/LTA) was evaluated using a fluorogenic conjugateBODIPY TR-Cadaverine (BC). BC binds endotoxin loses its fluorescence. The peptide competitively displaces BC from endotoxin and the fluorescence is reestablished. Competitive inhibition of endotoxin-BC binding was utilized due to presence of peptides already in complexion with endotoxin. 25 μL of 20 μM of peptides in 10 mM Na—PO4 buffer were incubated with 25 μL of LPS (40 μg/mL) or LTA (40 μg/mL) for 15 min and then added with 50 μL of BC (20 uM). Peptides bind to LPS or LTA and competitively prevents BC bind to the endotoxin. BC loses its fluorescence on binding to endotoxin. The fluorescence intensity of the unbound BC was measured at excitation=580 nm and emission=620 nm.
BC contains two functional moieties: BODIPY (boron-dipyrromethene) and cadaverine connected via a carboxamide. BODIPY is the fluorophore of BC and fluoresces in the free state in solution but loses fluorescence when bound to LPS/LTA. The competitive displacement of BC from LPS/LTA by AMPs and thus regeneration of the fluorescence has frequently been used to estimate the binding strength of AMPs with LPS/LTA. In the present studies, 5 μM of each peptide was used to displace BC from LPS/LTA. […] Such observation contradicts the initial assumption that substitution of Lys with arginine would result in increased efficiency of LPS binding. However, with sequential substitutions of Lys with arginine, starting with ATRA1-AR, peptide variants show increased LPS binding with each additional arginine substitution. In terms of LPS binding: ATRA1-AR<ATRA1-AR2<ATRA1-AR3. In ATRA1-R3, the lysine residues at 9th, 5th and 1st positions of ATRA1 were substituted with arginine. In ATRA1-R6 all of the lysine residues were replaced with arginine.

E. coli ATCC 25922 = experiment: Antimicrobial efficacy (resazurin virtual colony count); format: cell-based, Escherichia coli; conditions: pH 7.4
Procedure: Antimicrobial Studies. The phosphate buffers used for antimicrobial assays were supplemented with non-nitrogenous energy source, 0.1% (w/v) glucose. To conduct antimicrobial assays, bacterial strains were first suspended in respective buffers. E. coli (ATCC 25922) and B. cereus (ATCC 11778) were grown in MHB II up to OD600 nm˜1 and stored as frozen stock in 20% glycerol at −80° C. Occasionally they were thawed and enumerated by serial dilution and spreading on MHB II agar plates. The concentrations of the frozen stocks of E. coli and B. cereus strains were 1.0-1.1*10^8 CFU/mL with OD600 nm˜0.8. In case of other bacterial strains, they were grown on the days of experiment up to OD600 nm˜1-1.5 and then adjusted to OD600 nm˜0.8. The growth media of the drug-resistant bacterial strains were supplemented with few of the respective antibiotics against which they are resistant. 200 μL of the 0.8 OD600 nm culture were added to 10 mL of the respective buffer to obtain a suspension which was used to incubate with equal volumes of peptide solution in the same buffer.
Antimicrobial assays in different phosphate buffers and serum were conducted by adapting, with necessary modifications a fast high-throughput method based on Virtual Colony Count technique and later modified by incorporating the use of resazurin. At first serial dilution of a microbial strain in respective buffer was poured in the wells of 96 well polypropylene microplate and was then added with same volume of 2× MHB II supplemented with 80 μg/mL resazurin and incubated at 35° C. in a Gemini EM Microplate Reader (Molecular Devices) overnight with intermittent shaking. As the microbe grows it reduces non-fluorescent resazurin to fluorescent resorufin and the fluorescent intensity of each well were measured (excitation=570 nm, emission=590 nm) each 5 min for 15 hours. The time (t, min) to reach a certain fluorescence (RFU=20000 with respect to the starting fluorescence) was correlated with the initial bacterial concentration (in CFU/mL) in the particular well to obtain a calibration plot of the form: Log([Bacteria],CFU/mL)=b+m*t Equation 4: […]
To obtain antimicrobial efficacy of the peptides, 50 μL of serially diluted peptide in a buffer was incubated with 50 μL microbial suspension in the same buffer for 3 hours in black polypropylene 96 well plate. After incubation the wells were added with 100 μL of 2× MHB II supplemented with 80 μg/mL resazurin and then incubated with continuous fluorescence reading for overnight time period as described earlier. The surviving microbial population (CFU/mL) in each well were calculated by first finding the time to reach a fluorescence of RFU=20000 and the correlation (4) for the specific microbial strain and buffer. % Survival represents the proportion of viable cells in peptide treated cells relative to cells treated with the respective buffer alone. Equation 5: […]
Finally, the antimicrobial effectiveness of each peptide against the particular microbial strain in the specific buffer was determined by plotting % microbial survival as a function of the log of the concentration of the peptide and fitting the resulting data to a variable-slope sigmoidal regression model (equation 6). In this equation, log(EC50) represents the log of the concentration of the peptide required to kill half of the microbial population, where Smin and Smax correspond to the minimal and maximal microbial survival values (respectively), and H, Hill slope, is the parameter defining the steepness of the transition slopes of sigmoidal survival curves. % Microbial survival=Smin+(Smax−Smin)/(1+10^log(EC^50^)-log[peptide]*H) Equation 6: […]
The antimicrobial efficacies of the peptides were first tested against the model Gram-negative bacteria, E. coli ATCC 25922, in different phosphate buffers having varied ionic strengths and compositions. The phosphate buffers that were used included 10 mM sodium phosphate (calculated ionic strength˜25 mM), PBS and DPBS. […]

[2] = system: E. coli ML35p outer membrane; experiment: NPN assay, outer membrane perturbation; format: cell-based, Escherichia coli; conditions: DPBS; 25 μM peptide; 25 μM PMB = 100%
Procedure: (§1) Interactions with Bacterial Membranes. Interaction of the peptides with bacterial membranes in different phosphate buffers were evaluated using E. coli ML35p, constructed in our laboratory. At first, competent cells of E. coli ML35 were produced by conventional competent cell preparation method, then transformed with pBR322 plasmid. Transformed colonies were selected after growing on Luria-agar containing 50 μg/mL ampicillin. A single transformed colony was grown in presence of ampicillin first in Luria broth and then in MHBII and stored as 20% glycerol stock at −80° C. This frozen stock, on the day of the experiment, was thawed and grown in MHBII containing ampicillin up to OD600 nm=0.8-0.9, washed with PBS and then suspended in the respective buffer up to the required OD600 nm for use.
NPN Assay. The outer membrane perturbation of bacteria was evaluated by incubating E. coli ML35p with peptides in presence of NPN. 100 mM NPN in acetone was supplemented proportionately to a bacterial suspension of OD600 nm˜0.5 to achieve a final concentration of 20 μM of NPN and the mixture was equilibrated for 30 mins. Then, 90 μL of the bacterial suspension containing 20 μM NPN was added with 10 μL of 250 μM peptide (10×) solution in water and scanned for fluorescence intensity (excitation=350 nm, emission=420 nm). The % Perturbation was calculated by considering PMB to be causing 100% Perturbation and water (without peptide) as 0% Perturbation. Each peptide was tested in triplicate in each of the three phosphate buffers used.
When peptides partition from the bulk aqueous environment to the cellular membranes, they may cause small defects in the membrane organization, a signature of adsorption of the peptides into the membranes. Such small defects are called membrane perturbations and can be evaluated by utilizing molecular probes. One such molecular probe is NPN, which is a hydrophobic molecule and is usually repelled to enter the hydrophobic interiors of the membrane by the polar headgroups of membrane-lipids. However, when small defects and gaps are caused during the adsorption of the peptides into the membranes, NPN can enter through those defects and in the hydrophobic environment of the membrane interior the molecule fluoresces, which can be measured for quantification of the extent of membrane-perturbation and peptide adsorption in the cellular membrane.

[3] = system: E. coli ML35p outer membrane; experiment: Outer membrane disruption (β-lactamase leakage, nitrocefin); format: cell-based, Escherichia coli; conditions: DPBS
Procedure: as §1
Membrane Disruptions. The outer and the inner membrane disruptions by the peptides were evaluated by incubating bacterial suspension with peptides and then measuring the activity of enzymes leaked out of the cells. 100 μL of 10× concentration of peptide in water was incubated with 900 μL bacterial suspension (OD600 nm˜0.1) in respective buffer for 3 hours at room temperature with gentle rotation. Then the cells and debris were separated by centrifugation (10000 r.p.m. for 30 mins) and the supernatant was collected and tested for activity of enzymes that had leaked out of the bacterial cells. HCMAB was used as a positive control to cause 100% membrane disruption and water as a negative causing 0% disruption.
The outer membrane disruption was tested by using the activity of beta-lactamase present in the periplasmic space of E. coli ML35p. Peptides when disrupt the outer membrane enough to cause beta-lactamase to come out, the degree of disruption can be measured by the virtue of the kinetics of the enzyme and using a chromogenic cephalosporin substrate called nitrocefin. β-lactamase mediated hydrolyzed product of nitrocefin has an absorbance αmax=486 nm. Supernatant collected from the incubation of peptide with bacteria was added with nitrocefin solution in DPBS and incubated at 35° C. and continuous absorbance readings. The slope of the linear section of the absorbance curve (absorbance vs time), was used as a measure of membrane disruption and the % Disruption was calculated as: Equation 7: […]
Some of the ATRA1-variants were further tested for their ability to disrupt outer and inner membranes to form pores or disruptions sufficiently large so as to allow enzymes to leak out of their cellular compartments (cytoplasm or periplasmic space). For this purpose, two reporter molecules were used with one being the substrate of a cytoplasmic enzyme and the other was a substrate for an enzyme residing in the periplasmic space. One of the reporters, nitrocefin was the substrate for β-lactamase, which is present in the bacterial periplasm, whereas the other molecule, ONPG, was the substrate for β-galactosidase, which resides in the cytoplasm of E. coli ML35p strain. […] Similarly, β-galactosidase activity in the supernatants is evidence of inner membrane disruption and possible pore formation. When the aforesaid supernatants were tested for nitrocefin and ONPG hydrolysis, the corresponding absorbance increased with time (data not shown) indicating β-lactamase and β-galactosidase activity, respectively, and thus disruption of both the inner and outer membranes. The slopes of the increase in absorbance as a function of time provides the rate of enzyme activity. The enzyme activities in supernatants collected after incubation of bacteria with the quaternary ammonium surfactant, hexadecyltrimethylammonium bromide (HCMAB) was used as an internal reference for 100% membrane disruption. Enzyme activity for supernatants collected for cells incubated in the absence of peptide provided a reference for 0% membrane disruption. Bee venom peptide melittin was used as a positive control. […]

[4] = PBS (high / physiologically relevant ionic strength)

Row | Sequence | LPS binding (BC displacement), in words [1] | antimicrobial efficacy, in words (E. coli ATCC 25922; DPBS (with Ca++ and Mg++)) | antimicrobial efficacy, in words (E. coli ATCC 25922; [4]) | membrane perturbation with respect to PMB [2] | time to reach maximum signal for nitrocefin hydrolysis [3]
1 | KRAKRFFKRLK (SEQ ID NO: 7) [ATRA1-AR2] | ATRA1-AR<ATRA1-AR2<ATRA1-AR3 | lose activity in DPBS | more potent than ATRA1-A |  | 
2 | KRWKKFFKKWK (SEQ ID NO: 12) [ATRA1-W2] |  |  |  | higher OM perturbation than ATRA1 | 
3 | KRWKKWFKKWK (SEQ ID NO: 13) [ATRA1-W3] |  |  |  | higher OM perturbation than ATRA1 | approximately 30 mins
4 | RRAKRFFKRLK (SEQ ID NO: 8) [ATRA1-AR3] | ATRA1-AR<ATRA1-AR2<ATRA1-AR3 | lose activity in DPBS | greater effectiveness than both ATRA1-A and ATRA1 |  | 
